Columns and labels:
[1] = tested on: hippocampal slices from apoE4-KI mice; experiment: Brain slice electrophysiological recordings (LTP, input-output) after in vivo treatment; settings: 0.2 mg/kg for 8 weeks
Excerpt: Brain slice electrophysiological recordings and data analyses. For long-term potentiation (LTP) recording study, apoE4-KI mice were randomly allocated to vehicle (n=6, age 15.2±0.56 months) and bumetanide (n=3, age 15.1±0.06) treatment groups. ApoE3-KI mice were similarly allocated into vehicle (n=6, age 15.5±0.11) and bumetanide (n-3, age 15.57±0.19) treatment groups. For input/output recording study, apoE4-KI mice were randomly allocated to vehicle (n=3, age 15.1±0.06 months) and bumetanide (n=3, age 15.1±0.06) treatment groups. ApoE3-KI mice were similarly allocated into vehicle (n=7, age 15.3±0.06) and bumetanide (n=3, age 15.57±0.29) treatment groups. […]
Field post-synaptic potentials (fPSPs) were elicited by orthodromic stimulation of Schaffer collaterals by concentric bipolar stimulating electrode (FHC, Inc., USA) connected to a constant voltage isolated stimulator (DS2A-MKII, Digitimer North America) and placed in CA2 stratum radiatum. fPSPs were recorded with a glass borosilicate microelectrode filled with ACSF and placed in CA1 stratum radiatum. Signals were sampled and digitized by MultiClamp 700B amplifier and Digidata 1550B1 acquisition system with pClamp10 software (Molecular Devices, USA), and analyzed using IgorPro6 software (Wavemetrics Inc., USA) running custom macros. fPSP slopes were analyzed as the linear fit slope values between 10% and 90% of fPSP peak. […]

[2] = tested on: hippocampal cells of apoE4-KI mice; experiment: Single-nucleus RNA-seq of hippocampus of apoE4-KI mice; assay type: in vivo
Experimental: Single-Nucleus RNA-Seq Library Preparation and Sequencing. Twelve-month-old apoE3-KI and apoE4-KI mice received daily i.p. injections of vehicle or bumetanide (0.2 mg/kg body weight) for 60 days. […] Mouse hippocampi were acutely dissected on ice. Dissected hippocampi were placed in 2 mL Hibernate A®/B27®/GlutaMAX™ (HEB) medium in a 5 mL tube. The HEB medium was removed to a 15 mL conical and kept on ice. 2 mL of chilled lysis buffer (10 mM Tris-HCl, 10 mM NaCl, 3 mM MgCl2, and 0.1% Nonidet™ P40 Substitute in Nuclease-Free Water) were added to the tissue, and the hippocampi were homogenized by suctioning 10× through a 21G needle. After homogenization, the tissue was lysed on ice for 15 min, swirling 2-3×during this incubation period. The reserved chilled HEB media was then returned to the lysed tissue solution, and the tissue was further triturated with 5-7 passes through a 1 mL pipette. A 30 μm cell strainer (MACS SmartStrainer; Miltenyi Biotech 130-110-915) was washed with 1 mL of PBS, and the lysed tissue solution was filtered through the strainer to remove debris and clumps. Filtered nuclei were centrifuged at 500 ref for 5 min at 4° C. […]
Single-Nucleus RNA-Seq Alignment, Clustering and Cell Type Identification. […] Reads from each sample were aligned to this genome and aggregated using the 10×Cellranger pipeline with no modifications. […] Genes with detected expression in at least 3 nuclei, and nuclei with at least 200 detected genes and a maximum of 2400 were retained for analysis for a total of Nuclei with a mitochondrial percentage of less than 0.0025 were retained for future analysis for a total of 27,415 cells. Highly variable genes were calculated via the FindVariableGenes function with the parameters: x.low.cutoff=0.0123, x.high.cutoff =3, y.cutoff=0.5 for a total of 2578 highly variable genes. […] PCAElbow Plot was used to plot the cumulative standard deviations of each principal component the significance of the association of each gene with each principal component was assessed via the JackStraw and JackStrawPlot function. […]

## CCCCNc1cc(C(=O)O)cc(S(N)(=O)=O)c1Oc1ccccc1 [bumetanide, 3-(butylamino)-4-phenoxy-5-sulfamoylbenzoic acid]
[1]; aged (16-month-old) apoE4-KI mice, theta burst stimulation
  long-term potentiation (LTP) in CA1 region of hippocampal slices: completely rescued LTP deficit
[1]; aged apoE4-KI mice
  neuronal hyperexcitability in CA1 region (input-output curve analysis): normalized
[2]; 0.2 mg/kg daily i.p. 8 weeks
  number of those pathways also enriched in apoE4/4-mediated AD in humans: 19
[2]; 0.2 mg/kg daily i.p. 8 weeks, P<0.05 Monte Carlo
  number of cell types (of 18 clusters) in which apoE4/4 AD signature genes were flipped: 12
[2]; p<0.005, 0.2 mg/kg daily i.p. 8 weeks
  number of ontological pathways enriched in at least one neuronal cell type with significant flip: 104
